Test system: human melanoma cells (CRL-1872)
Assay: Cell proliferation assay (cell counting)
Assay type: cell-based
Conditions: for Average cell number: average over 0, 24, 48, 72 and 96 h; for number of cells vs serum-free medium: four days, triplicates; for duration of temporary increment of cell numbers: cell numbers dropped drastically after the medium change
Description: Human melanoma cells (CRL-1872) were purchased from ATCC, Rocksville, MD, USA. Cells were cultured in a complete growth medium, which consisted of Minimum Essential Medium (MEM) (Gibco, Waltham, MA, USA) supplemented with 10% fetal bovine serum (FBS) (Invitrogen, Waltham, MA, USA) and 1% antibiotic–antimycotic (Invitrogen, Waltham, MA, USA), in a humidified incubator at 37 °C, equilibrated with 5% CO2. Cells were subcultured every two days until reaching confluency in T25 flask (TPP, Trasadingen, Switzerland) before being seeded in designated plates for specific experiment objectives.
Cells were seeded at 80,000 cells per well in a 24-well plate containing 400 µL of complete growth medium. After 24 h of culture, the medium was removed, washed once with PBS, replaced with serum-free medium and left to culture for another 16 h. The medium was removed and replaced with corresponding treatment medium, each in triplicates; 10 nM and 50 nM of Sh-EGFl-1, 10 nM and 50 nM of rhEGF were used as a positive control and serum-free medium was used as a negative control. Cells were cultured in a single plate to track their growth every 24 h during the four days of experiment. […] A crossed line was made at the bottom of each well to mark the four cell-counting areas that were recorded daily using a microscope digital camera. Cells were counted manually based on the images visualized using ImageJ version 2.0.

| Substance | Average cell numbers (0 h, 10 nM) | Average cell numbers (0 h, 50 nM) | Average cell number (10 nM) | number of cells vs serum-free medium (50 nM) | Average cell number (50 nM) | duration of temporary increment of cell numbers (50 nM) | Average cell numbers (24 h, 10 nM) | Average cell numbers (24 h, 50 nM) | Average cell numbers (48 h, 10 nM) | Average cell numbers (48 h, 50 nM) | Average cell numbers (72 h, 10 nM) | Average cell numbers (72 h, 50 nM) | Average cell numbers (96 h, 10 nM) | Average cell numbers (96 h, 50 nM) | number of cells vs serum-free medium (10 nM) | cell number over time (10 nM, until day 4) | human cell growth (lower concentration, cell proliferation assay) | cell adherence, survival and proliferation (melanoma cells) |
| --- | --- | --- | --- | --- | --- | --- | --- | --- | --- | --- | --- | --- | --- | --- | --- | --- | --- | --- |
| H-MNSDSECPLSHDGYCLHDGVCMYIEALDKYACNCVVGYIGERCQYRDLKWWELR-OH (disulfide) [rhEGF, Recombinant human EGF purchased from Thermo Scientific, reference compound] | 2115 | 1331 | 810 | significantly higher | 1166 | 48 h | 712 | 1643 | 399 | 1741 | 497 | 663 | 339 | 438 |  |  |  |  |
| H-NINECFSSPCENQGICQDEIDGYNCVCQPGFTGTHCESSMLNHVI-OH (disulfide) [Sh-EGFl-1, 45 amino acid EGF-like peptide from Stichopus horrens contig 498513, synthesized by Fmoc solid-phase peptide chemistry] | 1781 | 1382 |  | significantly higher |  | 48 h | 1413 | 1637 | 1559 | 1753 | 1674 | 1094 | 1816 | 862 | not significantly different compared with the serum-free treatment | increased numbers until the end of the experiment on day 4 | significantly improved | cells are able to maintain their adherent properties, as well as survive and proliferate, albeit rather slowly |

Source: paper PMC9605497, “Potential of Epidermal Growth Factor-like Peptide from the Sea Cucumber Stichopus horrens to Increase the Growth of Human Cells: In Silico Molecular Docking Approach” (Marine Drugs, 2022)
